The values below come from patent US12331037B2, “Pyrimidines as EGFR-inhibitors and methods of treating disorders” (Dana-Farber Cancer Institute, Inc., priority 2014, dated 2025).

Structures are written as SMILES. Read-outs that look alike come from different tables or passages of the source.

The test system of experiment [1] is Ba/F3 EGFR L858R. Put plainly: Ba/F3 cell proliferation (MTS) assay. It counts as cell-based, murine. As to conditions: Mus musculus.
Description: (§1) Murine Ba/F3 cells are engineered to express mutant EGFR protein along with untransformed Ba/F3 cells and are used to performed single drug screens. Cell viability is assessed after 72 hours of compound i.e., compounds of Formula (I), exposure using the colorimetric cell proliferation MTS assay kit (Promega).
(§2) All experimental points were set up in six wells and all experiments were repeated at least three times. […] The curves were fitted using a non-linear regression model with a sigmoidal dose response.
The test system of experiment [2] is Ba/F3 EGFR DEL. Nature of the experiment: Ba/F3 cell proliferation (MTS) assay. It counts as cell-based, murine. As to conditions: Mus musculus.
Description: as §1, §2
Experiment [3] deals with Ba/F3 EGFR DEL/844V. Nature of the experiment: Ba/F3 cell proliferation (MTS) assay. It counts as cell-based, murine. As to conditions: Mus musculus.
Description: as §1
(§3) All cell lines were maintained in RPMI 1640 (Invitrogen, Carlsbad, CA) supplemented with 10% FBS 100 units/mL penicillin, 100 units/mL streptomycin, and 2 mM glutamine.
(§4) Ba/F3, NIH-3T3, cells were infected with retrovirus and PC9GR4 and HCC827 EPR cells infected with lentivirus according to standard protocols, as described previously (Engelman, J. A., et al., Proc Natl Acad Sci USA. 2005; 102:3788-93). Stable clones were obtained by selection in puromycin (2 μg/ml).
(§5) Growth and inhibition of growth was assessed by MTS assay and was performed according to previously established methods (Zhou, W., et al., Nature. 462, 2009, 1070-4; Ercan, D., et al., Cancer Discov. 934, 2012, 934-47). […] All experimental points were set up in six wells and all experiments were repeated at least three times. […] The curves were fitted using a non-linear regression model with a sigmoidal dose response.
Experiment [4] relates to Ba/F3 EGFR DEL/T790M. Put plainly: Ba/F3 cell proliferation (MTS) assay. It counts as cell-based, murine. The note with it: Mus musculus.
Description: as §1, §2
The test system of experiment [5] is Ba/F3 EGFR DEL/T790M/L718Q. Nature of the experiment: Ba/F3 cell proliferation (MTS) assay. It counts as cell-based, murine. The note with it: Mus musculus.
Description: as §1, §3, §4, §5
In experiment [6] the test system is Ba/F3 EGFR L858R/T790M/L718Q. Put plainly: Ba/F3 cell proliferation (MTS) assay. The class given is cell-based, murine. As to conditions: Mus musculus.
Description: as §1, §3, §4, §5
In experiment [7] the test system is Ba/F3 EGFR L858R/L718Q. Put plainly: Ba/F3 cell proliferation (MTS) assay. It counts as cell-based, murine. The note with it: Mus musculus.
Description: as §1, §3, §4, §5
The subject of experiment [8] is Ba/F3 EGFR L858R/T790M. Put plainly: Ba/F3 cell proliferation (MTS) assay. The class given is cell-based, murine. As to conditions: Mus musculus.
Description: as §1, §2
Experiment [9] relates to Ba/F3 EGFR DEL/L718Q. Nature of the experiment: Ba/F3 cell proliferation (MTS) assay. The class given is cell-based, murine. As to conditions: Mus musculus.
Description: as §1, §3, §4, §5
In experiment [10] the test system is Ba/F3 EGFR WT. Put plainly: Ba/F3 cell proliferation (MTS) assay. The class given is cell-based, murine. The note with it: Mus musculus.
Description: as §1, §2
Experiment [11] has as its system Ba/F3 EGFR L718Q. Put plainly: cells. As to conditions: Mus musculus, 72 h.
Description: as §1, §3
The EGFR L718Q and L844V mutations were introduced via site directed mutagenesis using the Quick Change Site-Directed Mutagenesis kit (Stratagene; La Jolla, CA) according to the manufacturer's instructions. The L718Q mutation was generated using forward primer 5′-[sequence]-3′ (SEQ. ID. NO. 1) and reverse primer 5′ [sequence]-3′ (SEQ. ID. NO. 2). The L844V mutation was generated using forward primer 5′-[sequence]-3′ (SEQ. ID. NO. 3) and reverse primer 5′-[sequence]-3′ (SEQ. ID. NO. 4). All constructs were confirmed by DNA sequencing. The constructs were shuttled into the retroviral vector JP1540 or lentiviral vector JP1698 using the BD Creator™ System (BD Biosciences). […]
Growth and inhibition of growth was assessed by MTS assay and was performed according to previously established methods (Zhou, W., et al., Nature. 462, 2009, 1070-4; Ercan, D., et al., Cancer Discov. 934, 2012, 934-47). […]
Where [12] appears, read: Ba/F3, EGFR L858R, 72 hours, MTS, read-out: IC50.
[13] abbreviates: Ba/F3, EGFR DEL, 72 hours, MTS, read-out: IC50.
Setting [14] is: Ba/F3, EGFR DEL/844V, 72 hours, MTS, read-out: IC50.
Where [15] appears, read: Ba/F3, EGFR DEL/T790M, 72 hours, MTS, read-out: IC50.
The mark [16] stands for this setting: Ba/F3, EGFR DEL/T790M/L718Q, 72 hours, MTS, read-out: IC50.
Setting [17] is: Ba/F3, EGFR L858R/T790M/L718Q, 72 hours, MTS, read-out: IC50.
Setting [18] is: Ba/F3, EGFR L858R/L718Q, 72 hours, MTS, read-out: IC50.
Setting [19] is: Ba/F3, EGFR L858R/T790M, 72 hours, MTS, read-out: IC50.
[20] abbreviates: Ba/F3, EGFR DEL/L718Q, 72 hours, MTS, read-out: IC50.
Setting [21] is: Ba/F3, EGFR WT, 72 hours, MTS, read-out: IC50.

Turning to `C=CC(=O)Nc1cc(Nc2nccc(-n3ccc4cccnc43)n2)c(OC)cc1N(C)CCN(C)C` [Compound I-1, N-(5-((4-(1H-pyrrolo[2,3-b]pyridin-1-yl)pyrimidin-2-yl)amino)-2-((2-(dimethylamino)ethyl)(methyl)amino)-4-methoxyphenyl)acrylamide], the half-maximal inhibitory concentration (IC50) was determined as 60 nM in experiment [1] (setting [12]); 42.9 nM in experiment [2] (setting [13]); 53.1 nM in experiment [3] (setting [14]); 64.8 nM in experiment [4] (setting [15]); 644 nM in experiment [5] (setting [16]); 1970 nM in [6] (setting [17]). The concentration for half-maximal inhibition (IC50) came out at 2060 nM in [7] (setting [18]), 189 nM in experiment [8] (setting [19]), 176 nM in [9] (setting [20]) and 323 nM in [10] (setting [21]).

As to `C=CC(=O)Nc1cc(Nc2nccc(-c3cn(C)c4ccccc34)n2)c(OC)cc1N(C)CCN(C)C` [AZD9291], the IC50 turned out to be 1.98 nM in experiment [1] (Ba/F3 EGFR-L858R, 72 h); 1250 nM in [11]; 1.79 nM in experiment [2] (Ba/F3 EGFR, 72 h); 15.1 nM in experiment [3] (Ba/F3 EGFR, 72 h); 10 nM in experiment [4] (Ba/F3 EGFR, 72 h); 576 nM in [5] (Ba/F3 EGFR, 72 h). Besides, the IC50 was 1270 nM in [6] (Ba/F3 EGFR, 72 h); 1180 nM in experiment [7] (Ba/F3 EGFR, 72 h); 10 nM in [8] (Ba/F3 EGFR, 72 h); 55.4 nM in experiment [9] (Ba/F3 EGFR, 72 h); 23 nM in experiment [10] (Ba/F3 EGFR, 72 h).

In the case of `C=CC(=O)Nc1cccc(Oc2nc(Nc3ccc(N4CCN(C)CC4)cc3OC)ncc2Cl)c1` [WZ4002], the IC50 in experiment [1] (setting [12]) is 6.8 nM; in [11] it was 2890 nM; in experiment [2] (setting [13]) it was 8.4 nM; in experiment [3] (setting [14]) it was 956 nM; in experiment [4] (setting [15]) it was 19.2 nM; in experiment [5] (setting [16]), 2010 nM. Also, the half-inhibitory concentration (IC50) in experiment [6] (setting [17]) amounted to 2230 nM; in [7] (setting [18]) it was 2740 nM; in [8] (setting [19]), 14.2 nM; in [9] (setting [20]), 1490 nM; in [10] (setting [21]), 100 nM.

For orientation: IC50 means the concentration that gives 50% inhibition.
